# Literature values as cited in patent publication US11033512B2, “Transdermal therapeutic system containing asenapine and silicone acrylic hybrid polymer” (LTS LOHMANN Therapie-Systeme AG, priority 2017, dated 2021).
# Tests used:
# [1] = biological target: serotonin 5-HT2A receptors (Homo sapiens, UniProt P28223)
# serotonin 5-HT2A receptors, sequence (P28223 whole entry): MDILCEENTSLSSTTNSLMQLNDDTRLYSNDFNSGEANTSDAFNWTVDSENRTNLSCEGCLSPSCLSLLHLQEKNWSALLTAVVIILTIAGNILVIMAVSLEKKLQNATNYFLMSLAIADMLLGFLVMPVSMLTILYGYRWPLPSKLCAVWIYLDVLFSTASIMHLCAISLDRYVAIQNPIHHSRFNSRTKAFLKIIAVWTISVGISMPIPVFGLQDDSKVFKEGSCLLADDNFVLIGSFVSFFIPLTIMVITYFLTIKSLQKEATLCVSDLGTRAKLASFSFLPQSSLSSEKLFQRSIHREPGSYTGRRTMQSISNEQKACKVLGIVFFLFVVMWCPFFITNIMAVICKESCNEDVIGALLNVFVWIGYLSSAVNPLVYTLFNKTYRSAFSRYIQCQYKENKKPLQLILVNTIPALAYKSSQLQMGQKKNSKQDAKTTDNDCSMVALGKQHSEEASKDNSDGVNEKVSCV
compound,measurement,setting,value
"CN1C[C@H]2c3ccccc3Oc3ccc(Cl)cc3[C@@H]2C1 (relative stereo) [asenapine, (3aRS,12bRS)-rel-5-chloro-2,3,3a,12b-tetrahydro-2-methyl-1H-dibenz[2,3:6,7]oxepino[4,5-c]pyrrole]",affinity,[1],high affinity
same,time of peak blood plasma concentrations,following sublingual administration,0.5 to 1.5 h
same,terminal disposition half-life,"following sublingual administration, therapeutic doses",≥ 24 h
same,bioavailability,if ingested,< 2%
